Experimental data taken from US8148367B2 (Takeda Pharmaceutical Company Limited, priority 2008, dated 2012).

Target: T1, Recombinant human renin (Homo sapiens, UniProt P00797)
T1 construct: isolate the active form (residues 67-406); made in house; host or cells: FreeStyle 293-F cells, transient expression of pcDNA3.1(+)/hREN
T1 sequence (P00797 67-406): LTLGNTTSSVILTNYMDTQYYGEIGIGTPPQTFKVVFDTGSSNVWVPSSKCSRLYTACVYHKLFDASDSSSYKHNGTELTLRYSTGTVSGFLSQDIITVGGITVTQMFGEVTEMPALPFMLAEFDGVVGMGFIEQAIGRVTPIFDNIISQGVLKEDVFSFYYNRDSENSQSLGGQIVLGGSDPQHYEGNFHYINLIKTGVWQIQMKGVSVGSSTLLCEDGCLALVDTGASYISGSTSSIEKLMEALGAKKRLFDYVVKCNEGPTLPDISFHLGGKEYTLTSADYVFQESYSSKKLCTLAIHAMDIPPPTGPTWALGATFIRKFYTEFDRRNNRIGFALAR
Test: In vitro enzymatic activity assay of renin inhibitors (fluorescence, QXL520/HiLyteFluo488 peptide substrate)
Format: biochemical
Conditions: not given

| Compound | IC50 |
| --- | --- |
| Cc1ccccc1-n1c(-c2ccccc2)c(C(=O)N2CCNCC2)n(CCCNC(=O)Oc2ccccc2)c1=O [Example 252, Phenyl 3-(2-oxo-4-phenyl-5-(piperazine-1-carbonyl)-3-o-tolyl-2,3-dihydro-1H-imidazol-1-yl)propylcarbamate] | > 1 µM |

Same assay, conditions: recombinant human renin 3 nM, 1 μM substrate, pre-incubated 10 minutes at 37° C., incubation one hour, pH 7.4, 5% DMSO; read-out: IC50 of Exemplified Compounds Against Renin

| IC50 | Compound |
| --- | --- |
| > 1 µM | COC(=O)NCCn1c(C(=O)N2CCNCC2)c(-c2ccccc2)n(-c2ccccc2C)c1=O [Example 249, Methyl 2-(2-oxo-4-phenyl-5-(piperazine-1-carbonyl)-3-o-tolyl-2,3-dihydro-1H-imidazol-1-yl)ethylcarbamate] |
| 0.1 to 0.5 µM | Cc1ccccc1-n1c(-c2ccccc2)c(C(=O)N2CCNCC2)n(CCCNC(=O)Nc2ccccc2Cl)c1=O [Example 224, 1-(2-Chlorophenyl)-3-(3-(2-oxo-4-phenyl-5-(piperazine-1-carbonyl)-3-o-tolyl-2,3-dihydro-1H-imidazol-1-yl)propyl)urea] |
| 0.5 to 1 µM | COc1ccc(C(=O)NCCn2c(C(=O)N3CCNCC3)c(-c3ccccc3)n(-c3ccccc3C)c2=O)cc1 [Example 235, 4-Methoxy-N-(2-(2-oxo-4-phenyl-5-(piperazine-1-carbonyl)-3-o-tolyl-2,3-dihydro-1H-imidazol-1-yl)ethyl)benzamide] |
| > 1 µM | COCCCOc1cccc(-n2c(-c3ccccc3)c(C(=O)N3CCNCC3)[nH]c2=O)n1 [Example 36, 1-(6-(3-Methoxypropoxy)pyridin-2-yl)-5-phenyl-4-(piperazine-1-carbonyl)-1H-imidazol-2(3H)-one] |
| > 1 µM | COc1cccc(Cn2c(C(=O)N3CCNCC3)c(-c3ccccc3)n([C@H]3CCCC[C@H]3O)c2=O)c1 [Example 153, 1-((1S,2R)-2-Hydroxycyclohexyl)-3-(3-methoxybenzyl)-5-phenyl-4-(piperazine-1-carbonyl)-1H-imidazol-2(3H)-one] |

Further lines, the compound ahead of its results:

| Compound | IC50 |
| --- | --- |
| CCCS(=O)(=O)Nc1ccccc1-n1c(-c2ccccc2)c(C(=O)N2CCNC[C@H]2Cc2ccccc2)[nH]c1=O [Example 119, (R)—N-(2-(4-(2-Benzylpiperazine-1-carbonyl)-2-oxo-5-phenyl-2,3-dihydro-1H-imidazol-1-yl)phenyl)propane-1-sulfonamide] | < 0.1 µM |
| O=C(c1[nH]c(=O)n(-c2ccccc2)c1-c1ccccc1)N1CCNCC1CO (stereo not shown) [Example 20, 4-(2-(Hydroxymethyl)piperazine-1-carbonyl)-1,5-diphenyl-1H-imidazol-2(3H)-one] | > 1 µM |
| CCN(CC)c1cc(Cn2c(C(=O)N3CCNCC3)c(-c3ccccc3)n(C3CCCCC3)c2=O)cc(-c2ccc(OC)nc2)n1 [Example 17J, 1-cyclohexyl-3-((6-(diethylamino)-6′-methoxy-2,3′-bipyridin-4-yl)methyl)-5-phenyl-4-(piperazine-1-carbonyl)-1H-imidazol-2(3H)-one] | 0.1 to 0.5 µM |
| O=C(c1[nH]c(=O)n(-c2ccccc2)c1CC1CC1)N1CCNCC1 [Example 25, 5-(Cyclopropylmethyl)-1-phenyl-4-(piperazine-1-carbonyl)-1H-imidazol-2(3H)-one] | > 1 µM |
| O=C(c1[nH]c(=O)n(-c2ccccc2)c1-c1ccccc1Cl)N1CCNCC1 [Example 26, 5-(2-Chlorophenyl)-1-phenyl-4-(piperazine-1-carbonyl)-1H-imidazol-2(3H)-one] | > 1 µM |
| O=C(c1[nH]c(=O)n(-c2ccc3c(c2)NCCC3)c1-c1ccccc1)N1CCNC[C@H]1CCOc1ccccc1 [Example 140, (R)-4-(2-(2-Phenoxyethyl)piperazine-1-carbonyl)-5-phenyl-1-(1,2,3,4-tetrahydroquinolin-7-yl)-1H-imidazol-2(3H)-one] | < 0.1 µM |
| CC1CN(C(=O)c2[nH]c(=O)n(C3CCCCC3)c2-c2ccccc2)CC(C)N1 (stereo not shown) [Example 40, 1-Cyclohexyl-4-(3,5-dimethylpiperazine-1-carbonyl)-5-phenyl-1H-imidazol-2(3H)-one] | > 1 µM |
